Experimental data published in patent US11667678B2, “Peptides for the treatment of COVID-19” (priority 2019, dated 2023).

Key:
Assay type in all cases: cell-based
[1] = tested on: human A549 lung cells challenged with UK variant (Alpha or N501Y) SARS-CoV-2 spike S1
[2] = tested on: human A549 lung cells challenged with South Africa variant (E484K) SARS-CoV-2 spike S1
[3] = tested on: human A549 lung cells challenged with Delta variant SARS-CoV-2 spike S1
[4] = tested on: human A549 lung cell line stimulated with Omicron variant SARS-CoV-2 spike S1

Molecule | IL-6 promoter-driven luciferase activity (reporter activity) [1] | IL-6 promoter-driven luciferase activity (reporter activity) [2] | IL-6 promoter-driven luciferase activity (reporter activity) [3] | Omicron variant spike S1-induced expression of TNFα and IL-1β (mRNA and promoter-luciferase activity) [4]
O=C(O)c1ccc(O)cc1 [4HB, 4-hydroxybenzoate] | significant inhibition | significant inhibition | significant inhibition | Significant inhibition
CC(C)=CCO [prenol] | significant inhibition | significant inhibition | significant inhibition | Significant inhibition
EDLFYQ (SPIDAR peptide) [wtSPIDAR] | significant inhibition | significant inhibition | significant inhibition | Significant inhibition
